Experiment [1] deals with PQQ-dependent membrane-bound glycerol dehydrogenase from Gluconobacter industrius IFO 3260. Put plainly: Km determination of comparison glycerol dehydrogenase (membrane-bound). Format: biochemical. As to conditions: enzyme preparation of Comparison 1, solubilized with dimethyldodecylamine oxide. On the procedure: (§1) Hereunder is explained a method for the determination of the activity of the novel glycerol dehydrogenase according to the present invention. To the reaction solution are added 0.7 ml of a 50 mM Tris--HCl buffer solution, 0.1 ml of a 0.1 M glycerol and the enzyme solution to a total volume of 0.9 ml. The mixture was preheated at 25° C. for 5 minutes, and 0.1 ml of a 0.1 M potassium ferricyanide was added thereto for the initiation of the reaction. The reaction is terminated by addition of 0.5 ml of ferric sulfate/Dupanol reagent thereto, after which 3.5 ml of distilled water is added thereto to a total volume of 5 ml. Then the mixture was allowed to stand at 25° C. for 30 minutes, followed by measurement of absorbance at 660 nm. A blank test is carried out in the same manner as the above-mentioned one, but adding distilled water instead of the enzyme solution. The activity of glycerol dehydrogenase is expressed with one unit (U) being defined as the enzyme activity which oxidizes 1 μmole of glycerol in 1 minute under the conditions specified above.
Gluconobacter industrious IFO3260 was cultivated in the same manner as in Example 1. The culture solution was centrifuged to harvest the cells which were then subjected to a conventional manner to yield a membrane fraction. […]

For experiment [2], the system named is PQQ-dependent soluble glycerol dehydrogenase from Pseudomonas sp. TE3493 (FERM BP-4169). Put plainly: Km determination of purified glycerol dehydrogenase (ferricyanide activity assay). Format: biochemical. As to conditions: purified enzyme of Example 1. How it is done:
as §1
In a 500 ml Sakaguchi flask there were placed 100 ml of a culture medium which contained 0.5% glycerol, 0.2% NaNO3, 0.2% (NH4)2 SO4, 1% K2 HPO4, 1% KH2 PO4, 0.02% MgSO4.7H2 O and 0.05% yeast extracts, followed by autoclaving at 121° C. for 15 minutes. One loopful of cells of Pseudomonas sp. […]

On to `OCC(O)CO` [glycerol], for which the Km was 34 mM in experiment [1] and 2.45 mM in experiment [2].

These data come from patent publication US5614374A, “Glycerol dehydrogenase, process for its production and its use” (Toyo Boseki Kabushiki Kaisha, priority 1992, dated 1997).
